The record followed here is the C3SDB collision cross section collection.

The conditions of data set [1]: instrument: DT, stepped-field.
For data set [2] the following is noted: instrument: DT, single field, calibrated with Agilent tune mix (Agilent).
The conditions of data set [3]: instrument: TW, calibrated with phosphatidylcholines (ESI+) and phosphatidylethanolamines (ESI-).
The conditions of data set [4]: [M+H]+; instrument: TW.

Values joined by “and” are separate entries in the source; they are usually repeats but may differ in a detail not shown here. Identical values can stand only once.

For the compound `CCCCCCCC/C=C\CCCCCCCC(=O)OC[C@@H](O)COP(=O)(O)O` [LPA(18:1)], in data set [1] ([M-H]-), the “collision cross section (N2)” value is reported as 198.8 Å². `CCCCCC/C=C\CCCCCCCC(=O)OC[C@@H](O)COP(=O)(O)OCCN` [LPE(16:1)]: the “collision cross section (N2)” value in data set [2] ([M-H]-) is listed as 203.8 Å²; in data set [1] ([M-H]-) it was 201.1 Å². As to `CCCCCC/C=C\CCCCCCCCCC(=O)O[C@H](CO)COP(=O)(O)OCCN` [LPE(18:1)], the “collision cross section (N2)” value in data set [2] ([M+H]+) is listed as 215.8 Å²; in data set [2] ([M+Na]+), 222.1 Å²; in data set [2] ([M-H]-) it was 211.3 Å²; in data set [1] ([M-H]-), 210.1 Å²; in data set [3] ([M+H]+) it was 214.2 Å²; in data set [3] ([M+Na]+), 219 Å². Further, the “collision cross section (N2)” value in data set [3] ([M-H]-) is 210.2 Å².

Take `CCCCCCCCCCCCCCCC(=O)OC[C@@H](O)COP(=O)(O)OC[C@@H](O)CO` [LPG(16:0)]: the “collision cross section (N2)” value in data set [1] ([M-H]-) turned out to be 214.3 Å². The same measure, in the same setting: the figure for `CCCCCC/C=C\CCCCCCCC(=O)OC[C@@H](O)COP(=O)(O)OC[C@@H](O)CO` [LPG(16:1)] is 212 Å². In the case of `CCCCCCCCCCCCCCCC(=O)OC[C@@H](O)COP(=O)(O)O[C@H]1C(O)C(O)C(O)[C@@H](O)C1O` (stereo partly specified) [LPI(16:0)], the “collision cross section (N2)” value in data set [2] ([M-H]-) was found to be 229.1 Å²; in data set [1] ([M-H]-), 228.7 Å². Consider `CCCCCCCC/C=C\CCCCCCCCCC(=O)O[C@H](COC(=O)CCCCCCCCCCC)COP(=O)(O)O` [PA(16:0/16:1)], for which, in data set [1] ([M-H]-), the “collision cross section (N2)” value stood at 251.8 Å².

Turning to `CCCCCCCCCC/C=C\CCCCCCCCCC(=O)O[C@H](COC(=O)CCCCCCCCCCCCC)COP(=O)(O)O` [PA(18:0/18:1)], the “collision cross section (N2)” value in data set [1] ([M-H]-) came out at 268 Å². On to `CCCCC/C=C\C/C=C\CCCCCCCCCCCC(=O)O[C@H](COC(=O)CCCCCCCCCCCCC)COP(=O)(O)O` [PA(18:1/18:1)], for which the “collision cross section (N2)” value in data set [1] ([M-H]-) worked out at 264 Å².

Take `CCCCC/C=C\C/C=C\C/C=C\CCCCCCC(=O)O[C@H](COCCCCCCCCCCCCCCCC)COP(=O)([O-])OCC[N+](C)(C)C` [PC(o36:3)]: the “collision cross section (N2)” value in data set [1] ([M+H]+) is given as 301 Å². Turning to `CC/C=C\C/C=C\C/C=C\C/C=C\C/C=C\CCCC(=O)O[C@H](COCCCCCCCCCCCCCCCC)COP(=O)([O-])OCC[N+](C)(C)C` [PC(o36:5)], the “collision cross section (N2)” value in data set [1] ([M+H]+) turned out to be 293.8 Å². The same measure, in the same setting: the figure for `CCCCC/C=C\C/C=C\CCCCCCCC(=O)O[C@H](COC(=O)CCCCCCCCCCCCCCC)COP(=O)(O)OCCN` [PE(16:1/18:1)] is 283.8 Å². Take `CCCCC/C=C\C/C=C\CCCCCCCCCCCC(=O)O[C@H](COC(=O)CCCCCCC/C=C\C/C=C\CCCCC)COP(=O)(O)OCCN` [PE(40:4)]: the “collision cross section (N2)” value was 288.1 Å² in data set [2] ([M+H]+); 293.3 Å² in data set [2] ([M+Na]+); 278.5 Å² in data set [2] ([M-H]-); 287.9 Å² and 287.8 Å² in data set [1] ([M-H]-); 286.8 Å² in data set [3] ([M+H]+); 277.3 Å² in data set [3] ([M-H]-). `CCCCC/C=C\C/C=C\C/C=C\CCCCCCC(=O)O[C@H](COCCCCCCCCCCCCCCCCCC)COP(=O)(O)OCCN` [PE(o38:3)]: the “collision cross section (N2)” value in data set [1] ([M+H]+) stood at 297.6 Å². Consider `CCCC/C=C\CCCCCCCC(=O)OC[C@H](COP(=O)(O)OC[C@@H](O)CO)OC(=O)CCCCCCC/C=C\CCCCCCCC` [PG(16:1/16:1)], for which the “collision cross section (N2)” value in data set [1] ([M-H]-) came out at 267.1 Å². Turning to `CC/C=C\C/C=C\C/C=C\C/C=C\CCCCC(=O)OC[C@H](COP(=O)(O)OC[C@@H](O)CO)OC(=O)CCCCCCCCCCCCCCCCC` [PG(36:4)], the “collision cross section (N2)” value in data set [2] ([M+NH4]+) is recorded as 283.4 Å²; in data set [1] ([M-H]-), 278 Å²; in data set [3] ([M+Na]+) it was 281 Å²; in data set [3] ([M-H]-), 271.3 Å². Regarding `CCCCCCCCCCCCCCCC(=O)OC[C@H](COP(=O)(O)O[C@H]1C(O)C(O)C(O)[C@@H](O)C1O)OC(=O)CCCCCCCCCCC` (stereo partly specified) [PI(12:0/16:0)], the “collision cross section (N2)” value in data set [1] ([M-H]-) is 273.5 Å².

`CCCCCCC/C=C\CCCCCCCC(=O)O[C@H](COC(=O)CCCCCCCCCCCC)COP(=O)(O)O[C@H]1C(O)C(O)C(O)[C@@H](O)C1O` (stereo partly specified) [PI(14:0/16:1)]: in data set [1] ([M-H]-), the “collision cross section (N2)” value is given as 278.4 Å². As for `CCCCC/C=C\C/C=C\CCCCCCCCCCCC(=O)O[C@H](COC(=O)CCCCCCCCCCC)COP(=O)(O)O[C@H]1C(O)C(O)C(O)[C@@H](O)C1O` (stereo partly specified) [PI(16:1/18:1)], the “collision cross section (N2)” value in data set [1] ([M-H]-) amounted to 289.2 Å². For `CCCCC/C=C\C/C=C\C/C=C\CCCCCCC(=O)O[C@H](COC(=O)CCCCCCC/C=C\CCCCCC)COP(=O)(O)O[C@H]1C(O)C(O)C(O)[C@@H](O)C1O` (stereo partly specified) [PI(36:4)], the “collision cross section (N2)” value is listed as 296.5 Å² in data set [2] ([M+H]+); 297.3 Å² in data set [2] ([M+NH4]+); 294.5 Å² in data set [2] ([M+Na]+); 297.2 Å² in data set [1] ([M-H]-); 290.5 Å² in data set [3] ([M+Na]+); 286.1 Å² in data set [3] ([M-H]-). As for `CCCCC/C=C\C/C=C\CCCCCCCCCCCC(=O)O[C@H](COC(=O)CCCCCCC/C=C\CCCCCC)COP(=O)(O)O[C@H]1C(O)C(O)C(O)[C@@H](O)C1O` (stereo partly specified) [PI(38:3)], the “collision cross section (N2)” value in data set [2] ([M+H]+) is 304.2 Å²; in data set [2] ([M+NH4]+) it was 306 Å²; in data set [2] ([M+Na]+), 303.1 Å²; in data set [2] ([M-H]-) it was 293.7 Å²; in data set [1] ([M-H]-), 301.7 Å² and 303.9 Å²; in data set [3] ([M+Na]+) it was 298.5 Å². In addition, the “collision cross section (N2)” value in data set [3] ([M-H]-) was 293 Å². For `CCCCC/C=C\C/C=C\CCCCCCCCCCCC(=O)O[C@H](COC(=O)CCCCCCCCCCC)COP(=O)(O)OC[C@H](N)C(=O)O` [PS(16:1/18:1)], the “collision cross section (N2)” value in data set [1] ([M-H]-) is 276.9 Å².

`CCCCCCCCCC/C=C\CCCCCCCCCC(=O)O[C@H](COC(=O)CCCCCCCCCCCCCCC)COP(=O)(O)OC[C@H](N)C(=O)O` [PS(38:1)]: the “collision cross section (N2)” value in data set [2] ([M+H]+) was determined as 292.9 Å²; in data set [1] ([M-H]-), 296.1 Å².

As to `CCCCC/C=C\C/C=C\CCCCCCCCCCCC(=O)O[C@H](COC(=O)CCCCCCC/C=C\CCCCCC)COP(=O)(O)OC[C@H](N)C(=O)O` [PS(38:3)], the “collision cross section (N2)” value is 292.4 Å² in data set [1] ([M-H]-) and 281.7 Å² in data set [3] ([M-H]-). Turning to `CCCCCCCCCC/C=C\CCCCCCCCCC(=O)O[C@H](COC(=O)CCCCCCCCCCCCCCCCC)COP(=O)(O)OC[C@H](N)C(=O)O` [PS(40:1)], in data set [1] ([M-H]-), the “collision cross section (N2)” value stood at 302.2 Å².

In the case of `C=C1C[C@@]23CC[C@H]4[C@@](C)(CCC[C@@]4(C)C(=O)O[C@@H]4O[C@H](CO)[C@@H](O)[C@H](O)[C@H]4O[C@@H]4O[C@H](CO)[C@@H](O)[C@H](O)[C@H]4O)[C@@H]2CC[C@]1(O[C@@H]1O[C@H](CO)[C@@H](O)[C@H](O)[C@H]1O[C@@H]1O[C@H](CO)[C@@H](O)[C@H](O)[C@H]1O)C3` [Rebaudioside E], the “collision cross section (N2)” value in data set [4] was determined as 289.2 Å². For the compound `C=C1C[C@@]23CC[C@H]4[C@@](C)(CCC[C@@]4(C)C(=O)O[C@@H]4O[C@H](CO)[C@@H](O)[C@H](O)[C@H]4O)[C@@H]2CC[C@]1(O[C@@H]1O[C@H](CO)[C@@H](O)[C@H](O[C@@H]2O[C@H](CO)[C@@H](O)[C@H](O)[C@H]2O)[C@H]1O[C@@H]1OC[C@@H](O)[C@H](O)[C@H]1O)C3` [Rebaudioside F], the “collision cross section (N2)” value in data set [4] amounted to 293.18 Å². For the compound `C=C1C[C@@]23CC[C@H]4[C@@](C)(CCC[C@@]4(C)C(=O)O[C@@H]4O[C@H](CO)[C@@H](O)[C@H](O)[C@H]4O)[C@@H]2CC[C@]1(O[C@@H]1O[C@H](CO)[C@@H](O)[C@H](O)[C@H]1O)C3` [Rubusoside], the “collision cross section (N2)” value in data set [4] was found to be 241.31 Å².

Consider `C=C1C[C@@]23CC[C@H]4[C@@](C)(CCC[C@@]4(C)C(=O)O[C@@H]4O[C@H](CO)[C@@H](O)[C@H](O)[C@H]4O)[C@@H]2CC[C@]1(O[C@@H]1O[C@H](CO)[C@@H](O)[C@H](O)[C@H]1O[C@@H]1O[C@H](CO)[C@@H](O)[C@H](O)[C@H]1O)C3` [Stevioside], for which the “collision cross section (N2)” value in data set [4] amounted to 269.64 Å². With `COc1cc(NS(=O)(=O)c2ccc(N)cc2)nc(OC)n1` [Sulfadimethoxine], in data set [4], the “collision cross section (N2)” value is 166 Å². `Nc1ccc(S(=O)(=O)Nc2nccs2)cc1` [Sulfathiazole]: in data set [4], the “collision cross section (N2)” value was 148.2 Å². On the same count and under the same terms, the figure for `CC(C)(C)C(O)(CCc1ccc(Cl)cc1)Cn1cncn1` (stereo unspecified) [Tebuconazole] is 167.37 Å²; for `CCOP(=S)(OCC)SCS(=O)(=O)C(C)(C)C` [Terbufos-sulfone] it is 172.88 Å²; for `CCNc1nc(Cl)nc(NC(C)(C)C)n1` [Terbuthylazine] it is 153.48 Å². Consider `N#C/N=C1\SCCN1Cc1ccc(Cl)nc1` [Thiacloprid], for which the “collision cross section (N2)” value in data set [4] was 154.84 Å². As for `COC(=O)NC(=S)Nc1ccccc1NC(=S)NC(=O)OC` [Thiophanate-methyl], the “collision cross section (N2)” value in data set [4] is reported as 174.24 Å². As to `CCCNC[C@]1(O)[C@H](C)O[C@@H](O[C@H]2[C@H](C)[C@@H](O[C@@H]3O[C@H](C)C[C@H](N(C)C)[C@H]3O)[C@](C)(O)C[C@@H](C)CN[C@H](C)[C@@H](O)[C@](C)(O)[C@@H](CC)OC(=O)[C@@H]2C)C[C@@]1(C)OC` [Tulathromycin], in data set [4], the “collision cross section (N2)” value came out at 286.4 Å².
